According to ChEMBL document CHEMBL1201862, “PubChem BioAssay data set” (2004):
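Compound exposure: 48 hours, 5 concentrations, 96-well plates. GI50 = concentration required for 50% inhibition of growth.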 Active and inactive are the calls of the source. Cut-off read from the data, not from the text of the source: active = GI50 up to about 1.1 µM and inactive = higher.

Tests used:
Test in all cases: NCI-60 cell line screen, 48 h
DMS-114 = test system: DMS-114
XF498 = test system: XF498
RXF 631 = test system: RXF 631
HOP-18 = test system: HOP-18
M19-MEL = test system: M19-MEL
DMS-273 = test system: DMS-273
LXFL 529 = test system: LXFL 529
KM-20L2 = test system: KM-20L2
SNB-78 = test system: SNB-78

| SMILES | GI50 (DMS-114) | GI50 (XF498) | GI50 (RXF 631) | GI50 (HOP-18) | GI50 (M19-MEL) | GI50 (DMS-273) | GI50 (LXFL 529) | GI50 (KM-20L2) | GI50 (SNB-78) |
| --- | --- | --- | --- | --- | --- | --- | --- | --- | --- |
| O=C(NC1CCCCC1)NS(=O)(=O)c1ccc2c(c1)CCC2 [GLYHEXAMIDE] | > 100 µM (inactive) | > 100 µM (inactive) | > 100 µM (inactive) | > 100 µM (inactive) | > 100 µM (inactive) | – | – | – | – |
| O=S(O)CCCSSCCCCSSCCCS(=O)O | > 100 µM (inactive) | > 100 µM (inactive) | – | > 100 µM (inactive) | > 100 µM (inactive) | > 100 µM (inactive) | > 100 µM (inactive) | > 100 µM (inactive) | > 100 µM (inactive) |
| O=c1/c(=C/c2ccc3c(c2)OCO3)sc2nnc(Cc3ccccc3)n12 | > 100 µM (inactive) | – | – | 88.1 µM (inactive) | > 100 µM (inactive) | > 100 µM (inactive) | > 100 µM (inactive) | > 100 µM (inactive) | > 100 µM (inactive) |
| CCOc1ccc(N2C(=O)C3c4[nH]c5ccccc5c4C4CCC(C(C)(C)C)CC4C3C2=O)cc1 (stereo not given) | 50 µM (inactive) | > 100 µM (inactive) | – | > 100 µM (inactive) | – | > 100 µM (inactive) | > 100 µM (inactive) | 77.8 µM (inactive) | 90.2 µM (inactive) |
| CCCCCCCCCCCCC(SCCNC(=O)CCNC(=O)C(O)C(C)(C)COP(=O)(O)OP(=O)(O)OCC1OC(n2cnc3c(N)ncnc32)C(O)C1OP(=O)(O)O)C(=O)NCC(N)=O (stereo not given) | 95.1 µM (inactive) | – | > 100 µM (inactive) | 37.8 µM (inactive) | > 100 µM (inactive) | 41.3 µM (inactive) | > 100 µM (inactive) | > 100 µM (inactive) | – |
| O=C1C[C@@H]2C(COC(=O)c3ccccc3)N(OCc3ccccc3)C[C@@H]2O1 (stereo not given in full) | > 100 µM (inactive) | – | > 100 µM (inactive) | > 100 µM (inactive) | > 100 µM (inactive) | > 100 µM (inactive) | > 100 µM (inactive) | > 100 µM (inactive) | > 100 µM (inactive) |
| C1=NN(Cc2ccccc2)C(N(Cc2ccccc2)Cc2ccccc2)N1 (stereo not given) | 12.7 µM (inactive) | – | 16.1 µM (inactive) | 23.3 µM (inactive) | 17.5 µM (inactive) | 15.1 µM (inactive) | 12.1 µM (inactive) | 14.1 µM (inactive) | 29.6 µM (inactive) |
| Oc1ccc2c(c1)CC[N+]1=C2CCC2CCCC21 (stereo not given) [QUINDONIUM BROMIDE] | > 100 µM (inactive) | – | – | – | > 100 µM (inactive) | > 100 µM (inactive) | > 100 µM (inactive) | – | – |
| N#CCCN(CCC#N)c1ccc(/C=N\c2nc(-c3ccccc3)cs2)cc1 | 73.3 µM (inactive) | 56.8 µM (inactive) | > 100 µM (inactive) | – | > 100 µM (inactive) | > 100 µM (inactive) | > 100 µM (inactive) | > 100 µM (inactive) | > 100 µM (inactive) |
| O=C(NC(=O)c1c(Cl)nc2sccn12)Nc1ccc(Cl)cc1 | > 71.3 µM (inactive) | 17.9 µM (inactive) | > 79.4 µM (inactive) | – | > 100 µM (inactive) | > 46.3 µM (inactive) | – | > 100 µM (inactive) | 43.1 µM (inactive) |
| O=C(N/N=C1/C(=O)N(c2ccc(Cl)cc2Cl)C(=O)C(=O)C1c1nc2ccccc2o1)c1ccccc1O (stereo not given) | 26.4 µM (inactive) | 20.4 µM (inactive) | – | – | 38.3 µM (inactive) | > 10 µM (inactive) | 37.6 µM (inactive) | > 100 µM (inactive) | – |
| COC(=O)C1(C)C=C(Nc2ccccc2)C(=O)N1c1ccccc1 (stereo not given) | > 100 µM (inactive) | > 100 µM (inactive) | 35.5 µM (inactive) | > 100 µM (inactive) | > 100 µM (inactive) | – | > 100 µM (inactive) | – | > 100 µM (inactive) |
| CCC1(O)C(=O)OCc2c1cc1n(c2=O)Cc2cc3c(N)cccc3nc2-1 (stereo not given) [RS-9-Aminocamptothecin] | < 0.0104 µM (active) | 0.145 µM (active) | 0.0471 µM (active) | 0.0424 µM (active) | 0.0588 µM (active) | < 0.01 µM (active) | 0.341 µM (active) | 0.132 µM (active) | 0.995 µM (active) |
| O=C(N/C(=C\c1ccc(Br)cc1)c1nc2ccccc2s1)c1ccccc1 | 46.5 µM (inactive) | > 100 µM (inactive) | 87.3 µM (inactive) | > 100 µM (inactive) | 70.3 µM (inactive) | 91.6 µM (inactive) | 54.5 µM (inactive) | > 100 µM (inactive) | > 100 µM (inactive) |
| C=C1C(=O)OC2(C)C3CCC(C3)C12 (stereo not given) | 46.6 µM (inactive) | 29.1 µM (inactive) | – | > 100 µM (inactive) | 44.8 µM (inactive) | 68.4 µM (inactive) | – | 45.1 µM (inactive) | 34.4 µM (inactive) |
| COC(=O)[C@H]1CC(=O)C=C2CCCC21 (stereo not given in full) | > 100 µM (inactive) | > 100 µM (inactive) | > 100 µM (inactive) | – | > 100 µM (inactive) | > 100 µM (inactive) | > 100 µM (inactive) | – | – |
| O=C(CSC(=S)N1CCOCC1)Nc1nc2c(s1)CCCC2 | 30.1 µM (inactive) | 50.1 µM (inactive) | – | – | 92.5 µM (inactive) | > 100 µM (inactive) | > 100 µM (inactive) | > 100 µM (inactive) | > 100 µM (inactive) |
| NCCSCC(N)C(=O)O (stereo not given) | > 497 µM (inactive) | > 497 µM (inactive) | – | – | > 497 µM (inactive) | > 497 µM (inactive) | > 497 µM (inactive) | > 497 µM (inactive) | > 497 µM (inactive) |
| COc1cc(O)c(C(=O)CC(C)=O)c(OC)c1 | > 100 µM (inactive) | > 100 µM (inactive) | – | > 100 µM (inactive) | – | > 100 µM (inactive) | > 100 µM (inactive) | > 100 µM (inactive) | > 100 µM (inactive) |
| COc1ccccc1-c1cc(=O)c2ccccc2[nH]1 | – | – | – | – | > 100 µM (inactive) | 57.9 µM (inactive) | > 100 µM (inactive) | > 100 µM (inactive) | > 100 µM (inactive) |
| O=[N+]([O-])c1cccc(Nc2nc(Cl)nc(Cl)n2)c1 | – | > 100 µM (inactive) | > 100 µM (inactive) | – | > 100 µM (inactive) | > 100 µM (inactive) | > 100 µM (inactive) | > 100 µM (inactive) | > 100 µM (inactive) |
| O=c1ccc2ccc(O)c3c4c(O)ccc5ccc(=O)c(c1c23)c54 | 1.51 µM (inactive) | 1.79 µM (inactive) | – | 2.26 µM (inactive) | 0.69 µM (active) | 1.95 µM (inactive) | – | – | – |
| O=S(=O)(O)SC/C=C\CSS(=O)(=O)O | > 100 µM (inactive) | > 100 µM (inactive) | > 100 µM (inactive) | > 100 µM (inactive) | > 100 µM (inactive) | > 100 µM (inactive) | > 100 µM (inactive) | > 100 µM (inactive) | > 100 µM (inactive) |
